Results: ChEMBL document CHEMBL1201862, “PubChem BioAssay data set” (2004)
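Step 1: Grow cells in 96-well plates. Step 2: Expose to compound for 48 hours at 5 concentrations. Step 3: Interpolate endpoints linearly; if unreached, use highest concentration. GI50 = concentration required for 50% inhibition of growth.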 Activity calls are given as the source filed them. Cut-off read from the data, not from the text of the source: active = GI50 up to about 1.1 µM and inactive = higher.

Tests used:
Assay in all cases: NCI-60 cell line screen, 48 h
[1] = tested on: U-251
[2] = tested on: EKVX
[3] = tested on: HL-60
[4] = tested on: NCI/ADR-RES
[5] = tested on: SK-MEL-2
[6] = tested on: CCRF-CEM
[7] = tested on: HT-29
[8] = tested on: UACC-62
[9] = tested on: NCI-H23
[10] = tested on: SF-295
[11] = tested on: ACHN
[12] = tested on: MDA-N
[13] = tested on: LOX IMVI
[14] = tested on: K562
[15] = tested on: OVCAR-5
[16] = tested on: BT-549
[17] = tested on: 786-0
[18] = tested on: M14
[19] = tested on: HOP-92

Measured: GI50

C=CC(O)(CBr)CCC(Br)C(=C)C (stereo not drawn)
inactive: [1] > 10 µM | [2] > 10 µM | [3] > 10 µM | [4] > 10 µM | [5] > 10 µM | [6] > 10 µM | [7] > 10 µM | [8] > 10 µM | [9] > 10 µM | [10] > 10 µM | [11] > 10 µM | [12] > 10 µM | [13] > 10 µM | [14] > 10 µM | [15] > 10 µM | [16] > 10 µM | [17] > 10 µM | [18] > 10 µM

CC1(C)C=[N+]([O-])C(C)(C)N1O
inactive: [1] > 10 µM | [2] > 10 µM | [3] > 10 µM | [4] > 10 µM | [5] > 10 µM | [6] > 10 µM | [7] > 10 µM | [9] > 10 µM | [10] > 10 µM | [11] > 10 µM | [12] > 10 µM | [14] > 10 µM | [15] > 10 µM | [19] > 10 µM | [16] > 10 µM | [17] > 10 µM | [18] > 10 µM

O=C(O)c1cc([N+](=O)[O-])cc2c(=O)c3cnccc3[nH]c12
inactive: [1] > 100 µM | [3] > 100 µM | [4] > 100 µM | [5] > 100 µM | [6] > 100 µM | [7] > 100 µM | [8] 65.2 µM | [9] > 100 µM | [10] > 100 µM | [12] > 100 µM | [14] > 100 µM | [15] > 100 µM | [16] > 100 µM | [18] > 100 µM

NS(=O)(=O)c1ccc(CNC(=S)NC(=O)Nc2ccc(Cl)c(Cl)c2)cc1
inactive: [1] 11.9 µM | [4] 19 µM | [5] 14.6 µM | [6] 16.4 µM | [7] 23.2 µM | [8] 15.1 µM | [9] 14.8 µM | [10] 16.3 µM | [11] 17.5 µM | [12] 20 µM | [13] 13.7 µM | [14] 16.1 µM | [15] 29 µM | [19] 17.7 µM | [16] 16.9 µM | [17] 16.8 µM | [18] 19 µM

CCC(=O)NC(Nc1ccc(O)cc1)(C(F)(F)F)C(F)(F)F
inactive: [1] 73.6 µM | [2] > 100 µM | [3] 18.5 µM | [5] 41.6 µM | [6] 19.6 µM | [7] > 100 µM | [8] 40.1 µM | [9] 67.8 µM | [11] 56 µM | [12] 17.9 µM | [13] 33.6 µM | [14] 33.1 µM | [15] > 100 µM | [16] 28.1 µM | [18] 80.5 µM

COc1ccc(CCCNC(=O)c2cc(OC)c(OC)cc2CCO)cc1OC
inactive: [1] > 100 µM | [2] > 100 µM | [3] > 100 µM | [4] > 100 µM | [5] > 100 µM | [6] > 10 µM | [7] > 100 µM | [8] > 100 µM | [9] > 100 µM | [10] > 100 µM | [11] > 100 µM | [13] > 100 µM | [14] > 100 µM | [15] > 100 µM | [19] > 100 µM | [16] > 100 µM | [17] > 100 µM | [18] > 100 µM

CC1C2CC(C(S(=O)(=O)N3CCOCC3)/C2=N\O)C1(C)C (stereo not drawn)
inactive: [2] > 100 µM | [3] > 100 µM | [4] > 100 µM | [6] > 100 µM | [7] > 100 µM | [8] > 100 µM | [9] > 100 µM | [10] > 100 µM | [11] > 100 µM | [12] > 100 µM | [13] > 100 µM | [14] > 100 µM | [19] > 100 µM | [16] > 100 µM | [17] > 100 µM | [18] > 100 µM

C=CCNC(=O)CN(CC(=O)O)C1CCCCC1N(CC(=O)O)CC(=O)O (stereo not drawn)
inactive: [1] > 100 µM | [3] > 100 µM | [4] > 100 µM | [6] > 100 µM | [7] > 100 µM | [8] > 100 µM | [9] > 100 µM | [10] > 100 µM | [11] > 100 µM | [12] > 100 µM | [13] > 100 µM | [14] > 100 µM | [15] > 100 µM | [19] > 100 µM | [16] > 100 µM | [17] > 100 µM

COC(=O)c1ccc(/C=C2\Cc3ccccc3C2=O)cc1
inactive: [1] > 100 µM | [2] > 100 µM | [3] > 100 µM | [4] > 100 µM | [6] > 100 µM | [7] > 100 µM | [8] > 100 µM | [9] > 100 µM | [10] > 100 µM | [11] > 100 µM | [12] > 100 µM | [14] > 100 µM | [16] > 100 µM | [17] > 100 µM | [18] > 100 µM

Cc1ccc(S(=O)(=O)N2CCc3cc(O)c([N+](=O)[O-])cc32)cc1
inactive: [1] > 100 µM | [3] > 100 µM | [4] > 100 µM | [5] > 100 µM | [6] > 100 µM | [8] > 100 µM | [9] > 100 µM | [10] > 100 µM | [11] > 100 µM | [12] > 100 µM | [13] > 100 µM | [16] > 100 µM | [17] > 100 µM | [18] > 100 µM

O=c1[nH]c(NCc2ccncc2)nc2[nH]cnc12
inactive: [1] > 100 µM | [2] > 100 µM | [4] > 100 µM | [5] > 100 µM | [6] > 100 µM | [7] > 100 µM | [8] > 100 µM | [9] > 100 µM | [10] > 100 µM | [11] > 100 µM | [12] > 100 µM | [13] > 100 µM | [14] > 100 µM | [15] > 100 µM | [19] > 100 µM | [16] > 100 µM | [17] > 100 µM | [18] > 100 µM

CCn1c(=O)c2c3ccc(O)cc3[nH]c2c2ccc(O)cc21
inactive: [1] 56.8 µM | [2] > 100 µM | [4] > 100 µM | [6] 55.8 µM | [7] > 100 µM | [8] 57 µM | [9] > 100 µM | [10] > 100 µM | [11] 96.4 µM | [12] 66.4 µM | [14] 83.6 µM | [15] > 100 µM | [19] > 100 µM | [16] > 100 µM | [18] > 100 µM
